Measurements reported in ChEMBL document CHEMBL4024756, “Identification of 4-Phenoxyquinoline Based Inhibitors for L1196M Mutant of Anaplastic Lymphoma Kinase by Structure-Based Design” (J Med Chem, 2017).
pIC50: −log10 of the molar value.

Experiments:
[1] = Tmax in rat at 10 mg/kg, po; type: ADME, organism-based; conditions: in vivo
[2] = Tmax in rat at 1 mg/kg, iv; type: ADME, organism-based; conditions: in vivo
[3] = AUClast in rat at 1 mg/kg, iv; type: ADME, organism-based; parameters: dose 1 mg/kg, time 0 - last, route intravenous; conditions: in vivo
[4] = Cmax in rat at 10 mg/kg, po; type: ADME, organism-based; parameters: dose 10 mg/kg, route oral; conditions: in vivo
[5] = AUClast in rat at 10 mg/kg, po; type: ADME, organism-based; parameters: dose 10 mg/kg, time 0 - last, route oral; conditions: in vivo
[6] = Oral bioavailability in rat at 10 mg/kg; type: ADME, organism-based; conditions: in vivo
[7] = Cmax in rat at 1 mg/kg, iv; type: ADME, organism-based; parameters: dose 1 mg/kg, route intravenous; conditions: in vivo
[8] = Half life in rat at 1 mg/kg, iv; type: ADME, organism-based; conditions: in vivo
[9] = biological target: Voltage-gated inwardly rectifying potassium channel KCNH2 (Homo sapiens, UniProt Q12809); assay: Inhibition of human ERG by fluorescently labeled tracer binding method
Chain of Voltage-gated inwardly rectifying potassium channel KCNH2 (Q12809 whole entry): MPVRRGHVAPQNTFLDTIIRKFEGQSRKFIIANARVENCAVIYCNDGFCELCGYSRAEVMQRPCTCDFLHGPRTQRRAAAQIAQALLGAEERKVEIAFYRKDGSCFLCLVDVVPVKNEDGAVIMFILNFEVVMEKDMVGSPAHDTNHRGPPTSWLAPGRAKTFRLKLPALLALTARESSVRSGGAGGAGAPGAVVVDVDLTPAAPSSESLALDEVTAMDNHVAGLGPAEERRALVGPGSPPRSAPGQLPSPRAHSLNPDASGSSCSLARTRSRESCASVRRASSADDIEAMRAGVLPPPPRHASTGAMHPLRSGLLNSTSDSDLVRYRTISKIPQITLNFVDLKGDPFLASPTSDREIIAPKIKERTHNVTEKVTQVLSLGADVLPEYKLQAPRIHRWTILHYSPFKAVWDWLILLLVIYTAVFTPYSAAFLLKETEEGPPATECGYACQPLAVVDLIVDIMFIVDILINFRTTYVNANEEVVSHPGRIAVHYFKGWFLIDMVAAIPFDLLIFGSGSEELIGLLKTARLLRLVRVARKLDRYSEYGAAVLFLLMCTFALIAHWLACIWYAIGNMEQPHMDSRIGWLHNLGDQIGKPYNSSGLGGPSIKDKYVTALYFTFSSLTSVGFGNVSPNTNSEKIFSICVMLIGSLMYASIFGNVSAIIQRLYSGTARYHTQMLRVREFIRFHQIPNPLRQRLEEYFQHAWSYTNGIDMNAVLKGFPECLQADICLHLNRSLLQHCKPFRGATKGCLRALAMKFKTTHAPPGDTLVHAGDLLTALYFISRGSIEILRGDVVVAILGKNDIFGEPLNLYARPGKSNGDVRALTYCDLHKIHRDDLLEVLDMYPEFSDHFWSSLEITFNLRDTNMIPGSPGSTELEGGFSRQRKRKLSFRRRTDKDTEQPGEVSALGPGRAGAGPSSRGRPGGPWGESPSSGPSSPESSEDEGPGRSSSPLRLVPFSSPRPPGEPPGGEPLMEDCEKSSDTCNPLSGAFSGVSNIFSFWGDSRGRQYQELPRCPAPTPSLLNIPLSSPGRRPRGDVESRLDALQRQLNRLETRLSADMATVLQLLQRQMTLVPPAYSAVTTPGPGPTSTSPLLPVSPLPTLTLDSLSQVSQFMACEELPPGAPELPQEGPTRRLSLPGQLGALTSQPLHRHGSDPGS

[10] = Antiproliferative activity against human H2228/CR cells after 72 hrs by MTT assay; conditions: NCI-H2228, 72 h
[11] = test system: NCI-H2228; assay: Antiproliferative activity against human NCI-H2228 cells after 72 hrs by MTT assay; conditions: NCI-H2228, 72 h

Row | Tmax [1] [h] | Tmax [2] [min] | AUC(0-t) [3] [µg·h/mL] | Cmax [4] [µg/mL] | AUC(0-t) [5] [µg·h/mL] | bioavailability [6] [%] | Cmax [7] [µg/mL] | half-life [8] [h] | pIC50 [11] | Compound | pIC50 [9] | pIC50 [10]
1 | 6 | 6 | 0.155 | 0.0784 | 0.384 | 24.8 | 0.0835 | 3.5 |  | Oc1ccc(Oc2ccnc3cc(-c4cnn(C5CCNCC5)c4)ccc23)cc1 |  | 
2 | 4 | 6 | 0.0959 | 0.0839 | 0.437 | 45.5 | 0.0489 | 10.7 |  | COc1ccc(Oc2ccnc3cc(-c4cnn(C5CCNCC5)c4)ccc23)cc1 | 5.61 | 
3 |  |  |  |  |  |  |  |  | 5.60 | C[C@@H](Oc1cc(-c2cnn(C3CCNCC3)c2)cnc1N)c1c(Cl)ccc(F)c1Cl [CRIZOTINIB] |  | 5.00

Row | Compound | Tmax [1] [h] | Tmax [2] [min] | AUC(0-t) [3] [µg·h/mL] | Cmax [4] [µg/mL] | AUC(0-t) [5] [µg·h/mL] | bioavailability [6] [%] | Cmax [7] [µg/mL] | half-life [8] [h] | pIC50 [11] | pIC50 [9] | pIC50 [10]
4 | Cc1ccc(Oc2ccnc3cc(-c4cnn(C5CCNCC5)c4)ccc23)cc1 | 4 | 6 | 0.166 | 0.131 | 0.745 | 44.8 | 0.0941 | 3.3 |  |  | 
